# Source: article PMC5608352, “Formyl peptide derived lipopeptides disclose differences between the receptors in mouse and men and call the pepducin concept in question” (PLoS ONE, 2017)
# Residues, ends and D or L forms follow the SMILES beside them. *: point of attachment. Palmitoyl = CCCCCCCCCCCCCCCC(=O)*
# Tests used:
# Format in all cases: cell-based
# Fpr2 [1] = target: T1, Fpr2 (Mus musculus, UniProt O88536); experiment: Inhibition of F1Pal16-induced superoxide release, WT mouse neutrophils; settings: mF2Pal16 250 nM, 5 min pre-incubation, F1Pal16 500 nM, one of three experiments
# T1 construct: WT mouse neutrophils (5 x 10^4 cells) were pre-incubated without (solid line) or with mF2Pal16; endogenous in cells; host or cells: bone marrow neutrophils of C57BL/6 wild-type mice, TNF-alpha primed
# T1 sequence (O88536 1-351): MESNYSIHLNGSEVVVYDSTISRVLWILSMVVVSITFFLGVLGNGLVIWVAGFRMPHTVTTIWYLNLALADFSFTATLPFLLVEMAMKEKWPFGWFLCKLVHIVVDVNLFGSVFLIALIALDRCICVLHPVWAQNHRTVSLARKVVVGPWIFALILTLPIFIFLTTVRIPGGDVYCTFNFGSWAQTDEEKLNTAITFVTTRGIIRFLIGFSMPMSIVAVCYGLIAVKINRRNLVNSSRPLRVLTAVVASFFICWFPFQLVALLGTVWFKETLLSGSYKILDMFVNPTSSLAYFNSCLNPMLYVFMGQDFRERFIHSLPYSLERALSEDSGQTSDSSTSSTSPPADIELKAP
# Excerpt: Mice (8–12 weeks of age) were killed by cervical dislocation, the femurs and tibias were removed and freed of soft tissue attachments, and the extreme distal tip of each extremity was cut off. KRG without Ca^2+ and Mg^2+ (KRG-) was forced through the bone by using a 1-mL syringe with a 27-gauge needle. After dispersing cell clumps and removing the debris, the bone marrow granulocytes were isolated according to an earlier described procedure with some modifications. Briefly, a cell suspension in 2 mL of KRG- was laid on top of a three-layer Percoll gradient (1.095, 1.085, and 1.070 g/mL). The density of each Percoll solution was verified using density marker beads. […] The cell number and population of bone marrow cells were determined by flow cytometry based on forward scatter (size) and side scatter (density) localization.
# (§1) NADPH-oxidase activity was determined using an isoluminol and HRP-enhanced chemiluminescence (CL) system that allow for the determination of superoxide production. The CL activity was measured in a six-channel Biolumat LB 9505 apparatus (Berthold Co., Wildbad, Germany), using disposable 4-mL polypropylene tubes with 1 mL reaction mixture. […] The light emission was recorded continuously over time and presented as superoxide production (in arbitrary light units, cpm x10^-6) as a function of time (min). […]
# Fpr2 [2] = target: T1, Fpr2; experiment: Inhibition of F2Pal16-induced superoxide release, WT mouse neutrophils; settings: Boc2 2 μM or peptidomimetic inhibitor 1 μM (five experiments), or mF2Pal16 500 nM against F2Pal16 500 nM (three experiments); 5 min pre-incubation
# Excerpt: Mice (8–12 weeks of age) were killed by cervical dislocation, the femurs and tibias were removed and freed of soft tissue attachments, and the extreme distal tip of each extremity was cut off. KRG without Ca^2+ and Mg^2+ (KRG-) was forced through the bone by using a 1-mL syringe with a 27-gauge needle. After dispersing cell clumps and removing the debris, the bone marrow granulocytes were isolated according to an earlier described procedure with some modifications. Briefly, a cell suspension in 2 mL of KRG- was laid on top of a three-layer Percoll gradient (1.095, 1.085, and 1.070 g/mL). The density of each Percoll solution was verified using density marker beads. After centrifugation at 500 × g for 30 min at 4°C in a swinging bucket rotor, the lowest band (1.085/1.095 g/mL interface) was collected as the neutrophil fraction. After washing with KRG-, remaining red blood cells were eliminated by hypotonic lysis. After a final wash with KRG-, the cells were resuspended in KRG. The cell number and population of bone marrow cells were determined by flow cytometry based on forward scatter (size) and side scatter (density) localization.
# as §1, with “(min). The activity before stimulus addition was recorded as basal line and this activity was not changed in vehicle control samples.” for “(min).”
# Data analysis was performed using Graph Pad Prism 7.0. The EC50/IC50 values were determined from experiments in which the activities were normalized to the response induced by maximal response or induced by agonist in the absence of inhibitor. […]
# FPR1 = experiment: Inhibition of fMLF-induced superoxide release, human neutrophils; settings: pepducin 1 μM; fMLF 50 nM
# Excerpt: Human peripheral blood neutrophils were isolated from buffy coats from healthy blood donors using dextran sedimentation and Ficoll-Paque gradient centrifugation as described. The remaining erythrocytes were disrupted by hypotonic lysis and the neutrophils were washed twice, suspended in KRG and, stored on melting ice until use. This isolation process permits cells to be purified with minimal granule mobilization. The buffy coats were obtained from the blood bank at Sahlgrenska University Hospital. Ethics approval was not needed since the buffy coats were provided anonymously and could not be traced back to a specific individual. This is in line with Swedish legislation section code 4§ 3p SFS 2003:460 (Lag om etikprövning av forskning som avser människor).
# as §1, with “(min). The activity before stimulus addition was recorded as basal line and this activity was not changed in vehicle control samples.” for “(min).”
compound,measurement,setting,value
CCCCCCCCCCCCCCCC(=O)N[C@@H](CCCCN)C(=O)N[C@H](C(=O)N[C@@H](CC(N)=O)C(=O)N[C@@H](CCCNC(=N)N)C(=O)N[C@@H](CCCNC(=N)N)C(=O)N[C@@H](CC(N)=O)C(=O)N[C@@H](CC(C)C)C(=O)N[C@H](C(=O)N[C@@H](CC(N)=O)C(=O)N[C@@H](CO)C(=O)N[C@@H](CO)C(=O)N[C@@H](CCCNC(=N)N)C(=O)N1CCC[C@H]1C(=O)N[C@@H](CC(C)C)C(=O)N[C@@H](CCCNC(=N)N)C(=O)N[C@H](C(=O)O)C(C)C)C(C)C)[C@@H](C)CC [mF2Pal16] (Palmitoyl-KINRRNLVNSSRPLRV-OH; C-terminus assumed),"effect of mF2Pal16 on F1Pal16 response, WT mouse neutrophils",Fpr2 [1],inhibits the activity of F1Pal16 in mouse neutrophils
same,"effect of mF2Pal16 on F1Pal16 response, WT mouse neutrophils",Fpr2 [1]; listed as mF2pal16,the response was sensitive to the pepducin inhibitor mF2pal16
same,"effect of inhibitor on F2Pal16 response, WT mouse neutrophils",Fpr2 [2],inhibitory effect
same,"effect on fMLF response, human neutrophils",FPR1,lack of inhibitory effect
